According to patent US20100233681A1, “METHOD FOR CELL BASED ASSAYS” (GE Healthcare UK Limited, priority 2006, published 2010):

System: U2OS osteosarcoma cells
Details: 250 ml of a 40 mM solution of histamine added after 20 seconds; control cells steady state 4500000 fluorescence units; 37° C.; FluoroMax-3 spectrofluorimeter
Method: i) U2OS osteosarcoma cells were grown on collagen coated CYTODEX™ 3 microcarriers (GE Healthcare) according to the Manufacturer's instructions in DMEM media (Invitrogen) supplemented with 10% (v/v) fetal bovine serum (Sigma). Once the culture had attained the required volume and cell density the cells on beads were loaded with 1 μM Fluo-4 (Invitrogen). Microcarriers were allowed to settle, the growth media removed and replaced with calcium flux buffer (145 mM sodium chloride, 5 mM potassium chloride, 1 mM magnesium sulphate, 10 mM HEPES, 10 mM D-glucose, 1 mM calcium chloride containing 1% BSA, 1 μM Fluo-4 (Invitrogen) and the cells incubated for 40 minutes at 37° C. Beads were allowed to settle, the calcium flux buffer removed and replaced with DMEM media supplemented with 10% (v/v) fetal bovine serum and glycerol (10% v/v final concentration) was added as a cryo-preservative. Fluo-4 loaded cells on beads were divided into aliquots of 8×10^5 cells and the 1 ml aliquots frozen to −140° C. at a freezing rate of 1° C./minute. ii) To set up the cell assay, vials of cryo-preserved cells were rapidly thawed in a water bath at 37° C. and cells on bead suspensions placed in 1.5 ml spectrofluorimeter cuvettes and equilibrated at 37° C. for 30 minutes. Fluorescence measurements were acquired over time using a FluoroMax-3 spectrofluorimeter using excitation and emission settings for Fluo-4.

NCCc1c[nH]cn1 [histamine]
Fluo-4 fluorescence after addition of histamine (intracellular calcium release): 5170000 fluorescence units
